# Assay results from patent publication US8735620B2, “Processes for preparing (E)-styrylbenzylsulfone compounds and uses thereof for treating proliferative disorders” (priority 2008, dated 2014).
# Read-outs that look alike come from different tables or passages of the source.
# Legend:
# Assay type in all cases: cell-based
# [1] = system: BT20, DU145, H157 and DLD1 cell lines; experiment: In vitro cytotoxicity, four human tumor cell lines (SAR discussion)
# Experimental: A number of tumor cell lines were tested using a dose response end point assay system. The cells were grown in either DMEM or RPMI supplemented with 10% fetal bovine serum and 1 unit/mL Penicillin-Streptomycin solution. The tumor cells were plated into 6 well dishes at a cell density of 1.0×10^5 cells/mL/well and compounds were added 24 h later at various concentrations. Cell counts were determined from duplicate wells after 96 h of treatment. The total number of viable cells was determined by trypan blue exclusion.
# Following the synthesis of this group of compounds, their in vitro cytotoxicity was assessed using four different human tumor cell lines derived from human breast (BT20), prostate (DU145), lung (H157) and colorectal (DLD1) cancers. […] In a majority of the compounds described here, a methoxy group was kept constant at the 4th position on the aromatic ring of the benzyl moiety.
# [2] = system: H157 (human lung tumor cell line); experiment: Cytotoxicity assay (trypan blue exclusion, 96 h), H157; conditions: H157, 96 h treatment; read-out: H157 IC50
# Description: (§1) Tissue Culture and Reagents: Paclitaxel was purchased from Sigma. Cell lines were purchased from ATCC. Cell lines were routinely grown in DMEM or RPM1 (CellGro) supplemented with 10% fetal bovine serum (Atlas) and 1 unit/mL penicillin-streptomycin (Gibco).
# [3] = system: DU145 (human prostate tumor cell line); experiment: Cytotoxicity assay (trypan blue exclusion, 96 h), DU145; conditions: DU145, 96 h treatment; read-out: DU145 IC50
# Description: as §1
# [4] = system: DLD1 (human colorectal tumor cell line); experiment: Cytotoxicity assay (trypan blue exclusion, 96 h), DLD1; conditions: DLD1, 96 h treatment; read-out: DLD1 IC50
# Description: as §1
# [5] = system: BT20 (human breast tumor cell line); experiment: Cytotoxicity assay (trypan blue exclusion, 96 h), BT20; conditions: BT20, 96 h treatment
# Description: as §1
Structure (SMILES),"cytotoxic activity, SAR statement [1]",IC50 [2] [µM],IC50 [3] [µM],IC50 [4] [µM],IC50 [5] [µM],"cytotoxic activity, SAR statement ([1]; four human tumor cell lines)","fold enhancement of activity compared to other disubstituted methoxy sulfones (6j, 6n, 6o and 6p) ([1]; cytotoxicity assays)",activity in cell-killing assays ([1]; at the highest concentration (20 μM) tested)
"COc1ccc(/C=C/S(=O)(=O)Cc2ccc(OC)cc2)cc1 [6a, (E)-4-Methoxystyryl-4-Methoxybenzyl sulfone]",gradually decreased the activity,> 20,> 20,> 20,> 20,–,–,–
"COc1cc(OC)c(/C=C/S(=O)(=O)Cc2cc(OC)c(OC)c(OC)c2)c(OC)c1 [6ac, (E)-2,4,6-trimethoxystyryl-3,4,5-Trimethoxybenzyl sulfone]",–,> 20,> 20,> 20,> 20,–,–,–
"COc1cc(OC)c(/C=C/S(=O)(=O)Cc2ccc(OC)c(OC)c2OC)c(OC)c1 [6ad, (E)-2,4,6-Trimethoxystyryl-2,3,4-Trimethoxybenzyl sulfone]",–,–,12.5,–,–,–,–,–
"COc1cc(OC)c(/C=C/S(=O)(=O)Cc2ccc(Cl)cc2)c(OC)c1 [6ae, (E)-2,4,6-trimethoxystyryl-4-chlorobenzyl sulfone]",substantially lost activity,–,7.5,–,10,–,–,–
"COc1cc(OC)c(/C=C/S(=O)(=O)Cc2ccc([N+](=O)[O-])cc2)c(OC)c1 [6af, (E)-2,4,6-trimethoxystyryl-4-Nitrobenzyl sulfone]",–,–,–,–,–,substantially lost activity,–,–
"COc1cc(OC)c(/C=C/S(=O)(=O)Cc2ccc(C#N)cc2)c(OC)c1 [6ag, (E)-2,4,6-trimethoxystyryl-4-Cyanobenzyl sulfone]",substantially lost activity,–,7.5,–,12.5,–,–,–
"COc1cc(OC)c(/C=C/S(=O)(=O)Cc2ccc(C(=O)O)cc2)c(OC)c1 [6ah, (E)-2,4,6-trimethoxystyryl-4-Carboxybenzyl sulfone]",–,17.5,10,–,–,substantially lost activity,–,–
"COc1cc(OC)c(/C=C/S(=O)(=O)Cc2ccc(O)cc2)c(OC)c1 [6ai, (E)-2,4,6-trimethoxystyryl-4-Hydroxybenzyl sulfone]",–,–,7.5,–,–,substantially lost activity,–,–
"COc1ccc(CS(=O)(=O)/C=C/c2ccc(F)cc2)cc1 [6b, (E)-4-Fluorostyryl-4-Methoxybenzyl sulfone]",moderate cytotoxic activity,2.5,1.25,2,1.5,–,–,–
"COc1ccc(CS(=O)(=O)/C=C/c2ccc(Cl)cc2)cc1 [6c, (E)-4-Chlorostyryl-4-Methoxybenzyl sulfone]",gradually decreased the activity,3.5,2.5,3,2,–,–,–
"COc1ccc(CS(=O)(=O)/C=C/c2ccc([N+](=O)[O-])cc2)cc1 [6d, (E)-4-Nitrostyryl-4-Methoxybenzyl sulfone]",–,7.5,7.5,5,5,gradually decreased the activity,–,–
"COc1ccc(CS(=O)(=O)/C=C/c2ccc(N)cc2)cc1 [6e, (E)-4-Aminostyryl-4-Methoxybenzyl sulfone]",gradually decreased the activity,> 20,> 20,> 20,> 20,–,–,–
"COc1ccc(CS(=O)(=O)/C=C/c2ccccc2OC)cc1 [6f, (E)-2-Methoxystyryl-4-Methoxybenzyl sulfone]",–,5,3.5,7.5,5,partially recovered the lost activity,–,–
"COc1ccc(CS(=O)(=O)/C=C/c2ccc(F)cc2Cl)cc1 [6g, (E)-2-Chloro-4-fluorostyryl-4-Methoxybenzyl sulfone]",retained cytotoxic activity,2.5,2,4,2.5,–,–,–
"COc1ccc(CS(=O)(=O)/C=C/c2ccc(C)cc2C)cc1 [6h, (E)-2,4-Dimethylstyryl-4-Methoxybenzyl sulfone]",low level of cytotoxicity,–,12,–,–,–,–,–
"COc1ccc(CS(=O)(=O)/C=C/c2ccc(F)c(OC)c2)cc1 [6i, (E)-4-Fluoro-3-methoxystyryl-4-Methoxybenzylsulfone]",–,–,10,–,–,loss of activity,–,–
"COc1ccc(CS(=O)(=O)/C=C/c2ccc(OC)c(OC)c2)cc1 [6j, (E)-3,4-Dimethoxystyryl-4-Methoxybenzyl sulfone]",–,> 20,> 20,> 20,> 20,–,–,–
"COc1ccc(CS(=O)(=O)/C=C/c2cc(C)cc(C)c2)cc1 [6k, (E)-3,5-Dimethylstyryl-4-Methoxybenzyl sulfone]",low level of cytotoxicity,> 20,> 20,> 20,> 20,–,–,–
"COc1ccc(CS(=O)(=O)/C=C/c2c(C)cccc2C)cc1 [6l, (E)-2,6-Dimethylstyryl-4-Methoxybenzyl sulfone]",low level of cytotoxicity,> 20,> 20,> 20,> 20,–,–,–
"COc1ccc(CS(=O)(=O)/C=C/c2c(OC)cccc2OC)cc1 [6m, (E)-2,6-Dimethoxystyryl-4-Methoxybenzyl sulfone]",–,0.7,0.25,0.7,0.4,–,greater than 40 fold,–
"COc1ccc(CS(=O)(=O)/C=C/c2ccc(OC)cc2OC)cc1 [6n, (E)-2,4-Dimethoxystyryl-4-Methoxybenzyl sulfone]",–,> 20,> 20,> 20,> 20,–,–,–
"COc1ccc(CS(=O)(=O)/C=C/c2cc(OC)ccc2OC)cc1 [6o, (E)-2,5-Dimethoxystyryl-4-Methoxybenzyl sulfone]",–,> 20,> 20,> 20,> 20,–,–,–
"COc1ccc(CS(=O)(=O)/C=C/c2cc(OC)cc(OC)c2)cc1 [6p, (E)-3,5-Dimethoxystyryl-4-Methoxybenzyl sulfone]",–,> 20,> 20,> 20,> 20,–,–,–
"COc1ccc(CS(=O)(=O)/C=C/c2cc(OC)c(OC)cc2OC)cc1 [6q, (E)-2,4,5-Trimethoxystyryl-4-Methoxybenzyl sulfone]",–,> 20,> 20,> 20,> 20,–,–,totally inactive
"COc1cc(OC)c(/C=C/S(=O)(=O)Cc2ccc(OC(F)(F)F)cc2)c(OC)c1 [6x, (E)-2,4,6-Trimethoxystyryl-4-Trifluoromethoxybenzyl sulfone]",–,6,4,4,3,–,–,–
"COc1ccc(CS(=O)(=O)/C=C/c2cc(OC)c(OC)c(OC)c2)cc1O [6y, (E)-3,4,5-Trimethoxystyryl-3-Hydroxy-4-Methoxybenzyl Sulfone]",–,10,5,10,7.5,–,–,–
"COc1ccc(CS(=O)(=O)/C=C/c2c(OC)cc(O)cc2OC)cc1O [6z, (E)-2,6-Dimethoxy-4-hydroxystyryl-3-Hydroxy-4-Methoxybenzyl Sulfone]",–,0.5,0.5,0.5,0.25,–,–,–
